This is an account of results in patent publication US12344600B2, “c-Myc mRNA translation modulators and uses thereof in the treatment of cancer” (Anima Biotech Inc., priority 2022, dated 2025).

The experiment concerns c-Myc. Briefly: c-Myc immunofluorescence assay. The format is cell-based, human. The note with it: A549 cells, 24 hours, anti-c-Myc immunofluorescence. As for the experimental part: A549 human non-small cell lung carcinoma cells were treated for 24 hours with increasing compound concentration, cells were fixed and stained with a nuclei stain (DAPI) and anti-c-Myc fluorescent antibody. The c-Myc signal was quantified by image analysis, and data was exported and analyzed using TIBCO Spotfire® (TIBCO Corporation). Dose response curves were generated and fitted with logaristic regression to calculate potency (EC50 values). Potency values are presented in Table 2 for all compounds and are shown for selected compounds (FIG. 3).
A549 cells were grown in 384-wells plates (Perkin Elmer, Cat. 6057300) for 48 hours, treated with compounds and then fixed for 20 min in 4% paraformaldehyde. After that permeabilization was done using 0.1% Triton X-100 in PBS for 20 min. Primary anti-c-Myc antibody (Abcam, ab32072) staining was performed for 90 min at room temperature. Cells then were washed twice with PBS and incubated with secondary antibody (Abcam, ab150075) for 90 min at room temperature. Nuclei were stained with DAPI for 10 min and washed twice with PBS.
Cell images were taken with Operetta (Perkin Elmer, USA), a wide-field fluorescence microscope at 20× magnification. After acquisition, the images were transferred to Columbus software (Perkin-Elmer) for image analysis. In Columbus, cells were identified by their nucleus, using the “Find Nuceli” module and cytoplasm was detected based on the secondary antibody channel. Subsequently, the fluorescent signal was enumerated in the identified cell region. Then data was exported to a data analysis and visualization software, Tibco Spotfire, USA.
`CC1CCCN(CCCNC(=O)C2CCN(c3nc(-c4ccc(Cl)cc4)no3)CC2)C1` (stereo not drawn) [Compound 132, 1-(3-(4-chlorophenyl)-1,2,4-oxadiazol-5-yl)-N-(3-(3-methylpiperidin-1-yl)propyl)piperidine-4-carboxamide]: the “Myc Efficacy (−LogEC50)” value is “+ (+ >3 and <5)”.

For `COc1ccc(CNC(=O)C2CCN(c3nc(-c4ccc(C(C)C)cc4)no3)CC2)cc1` [Compound 133, 1-(3-(4-isopropylphenyl)-1,2,4-oxadiazol-5-yl)-N-(4-methoxybenzyl)piperidine-4-carboxamide], the “Myc Efficacy (−LogEC50)” value was “+ (+ >3 and <5)”.

For `COc1ccc(-c2noc(N3CCC(C(=O)N4CCC(OC)CC4)CC3)n2)cc1` [Compound 134, (1-(3-(4-methoxyphenyl)-1,2,4-oxadiazol-5-yl)piperidin-4-yl)(4-methoxypiperidin-1-yl)methanone], the “Myc Efficacy (−LogEC50)” value was “+ (+ >3 and <5)”.

Regarding `COc1ccc(-c2noc(N3CCC(Oc4ccccc4)CC3)n2)cc1` [Compound 135, 3-(4-methoxyphenyl)-5-(4-phenoxypiperidin-1-yl)-1,2,4-oxadiazole], the “Myc Efficacy (−LogEC50)” value is reported as “− (− ≤3)”.

As to `COc1ccc(-c2noc(N3CCC(c4ccccc4)CC3)n2)cc1` [Compound 136, 3-(4-methoxyphenyl)-5-(4-phenylpiperidin-1-yl)-1,2,4-oxadiazole], the “Myc Efficacy (−LogEC50)” value is reported as “− (− ≤3)”.

For `CNC(=O)C1CCN(c2nc(-c3ccc(OC)cc3)no2)CC1` [Compound 137, 1-(3-(4-methoxyphenyl)-1,2,4-oxadiazol-5-yl)-N-methylpiperidine-4-carboxamide], the “Myc Efficacy (−LogEC50)” value was “+ (+ >3 and <5)”.

Regarding `COc1ccc(-c2noc(N3CCNCC3)n2)cc1` [Compound 138, 3-(4-methoxyphenyl)-5-(piperazin-1-yl)-1,2,4-oxadiazole], the “Myc Efficacy (−LogEC50)” value was “+ (+ >3 and <5)”.

`COc1ccc(-c2noc(N3CCC(C(=O)N4CCOCC4)CC3)n2)cc1` [Compound 139, (1-(3-(4-methoxyphenyl)-1,2,4-oxadiazol-5-yl)piperidin-4-yl)(morpholino)methanone]: the “Myc Efficacy (−LogEC50)” value is “+ (+ >3 and <5)”.

As to `COc1ccc(-c2noc(N3CCC(C(=O)NCCCN4CCC(C)CC4)CC3)n2)cc1` [Compound 140, 1-(3-(4-methoxyphenyl)-1,2,4-oxadiazol-5-yl)-N-(3-(4-methylpiperidin-1-yl)propyl)piperidine-4-carboxamide], the “Myc Efficacy (−LogEC50)” value is “+ (+ >3 and <5)”.

For `COc1ccc(-c2noc(N3CCC(C(=O)NCCCN4CCC[C@H](C)C4)CC3)n2)cc1` [Compound 141, (S)-1-(3-(4-methoxyphenyl)-1,2,4-oxadiazol-5-yl)-N-(3-(3-methylpiperidin-1-yl)propyl)piperidine-4-carboxamide], the “Myc Efficacy (−LogEC50)” value is reported as “− (− ≤3)”.

Consider `COc1ccc(-c2noc(N3CCC(C(=O)NCCCN4CCC[C@@H](C)C4)CC3)n2)cc1` [Compound 142, (R)-1-(3-(4-methoxyphenyl)-1,2,4-oxadiazol-5-yl)-N-(3-(3-methylpiperidin-1-yl)propyl)piperidine-4-carboxamide], for which the “Myc Efficacy (−LogEC50)” value is “+ (+ >3 and <5)”.

In the case of `COc1ccc(-c2noc(N3CCC(C(=O)Nc4ccccc4)CC3)n2)cc1` [Compound 143, 1-(3-(4-methoxyphenyl)-1,2,4-oxadiazol-5-yl)-N-phenylpiperidine-4-carboxamide], the “Myc Efficacy (−LogEC50)” value is “++ (++ ≥5 and <6)”.

With `COc1ccc(-c2noc(N3CCN(C(=O)N4CCOCC4)CC3)n2)cc1` [Compound 144, (4-(3-(4-methoxyphenyl)-1,2,4-oxadiazol-5-yl)piperazin-1-yl)(morpholino)methanone], the “Myc Efficacy (−LogEC50)” value is “+ (+ >3 and <5)”.

Turning to `COc1ccc(-c2noc(N3CCN(C(=O)N4CCC(C)CC4)CC3)n2)cc1` [Compound 145, (4-(3-(4-methoxyphenyl)-1,2,4-oxadiazol-5-yl)piperazin-1-yl)(4-methylpiperidin-1-yl)methanone], the “Myc Efficacy (−LogEC50)” value was “+ (+ >3 and <5)”.

On to `COc1ccc(-c2noc(N3CCN(C(=O)N4CCS(=O)(=O)CC4)CC3)n2)cc1` [Compound 146, (1,1-dioxidothiomorpholino)(4-(3-(4-methoxyphenyl)-1,2,4-oxadiazol-5-yl)piperazin-1-yl)methanone], for which the “Myc Efficacy (−LogEC50)” value was “+ (+ >3 and <5)”.

`COc1ccc(-c2noc(N3CCN(C(C)=O)CC3)n2)cc1` [Compound 147, 1-(4-(3-(4-methoxyphenyl)-1,2,4-oxadiazol-5-yl)piperazin-1-yl)ethan-1-one]: the “Myc Efficacy (−LogEC50)” value was “+ (+ >3 and <5)”.

`COc1ccc(-c2noc(N3CCN(C(=O)C4CCOCC4)CC3)n2)cc1` [Compound 148, (4-(3-(4-methoxyphenyl)-1,2,4-oxadiazol-5-yl)piperazin-1-yl)(tetrahydro-2H-pyran-4-yl)methanone]: the “Myc Efficacy (−LogEC50)” value was “+ (+ >3 and <5)”.

For the molecule `COc1ccc(-c2noc(CCC(=O)NC[C@H]3CCN(Cc4ccc(C)cc4)C3)n2)cc1` [Compound 149, (R)-3-(3-(4-methoxyphenyl)-1,2,4-oxadiazol-5-yl)-N-((1-(4-methylbenzyl)pyrrolidin-3-yl)methyl)propanamide], the “Myc Efficacy (−LogEC50)” value was “++ (++ ≥5 and <6)”.

For `COc1ccc(-c2noc(CCC(=O)NC[C@@H]3CCN(Cc4ccc(C)cc4)C3)n2)cc1` [Compound 150, (S)-3-(3-(4-methoxyphenyl)-1,2,4-oxadiazol-5-yl)-N-((1-(4-methylbenzyl)pyrrolidin-3-yl)methyl)propanamide], the “Myc Efficacy (−LogEC50)” value was “++ (++ ≥5 and <6)”.

With `COc1ccc(-c2noc(CCC(=O)NCCCN3CCC(Cc4ccccc4)CC3)n2)cc1` [Compound 151, N-(3-(4-benzylpiperidin-1-yl)propyl)-3-(3-(4-methoxyphenyl)-1,2,4-oxadiazol-5-yl)propanamide], the “Myc Efficacy (−LogEC50)” value was “++ (++ ≥5 and <6)”.

Turning to `COc1ccc(-c2noc(N3CCC(C(=O)NCCCN4CCC(Cc5ccccc5)CC4)CC3)n2)cc1` [Compound 152, N-(3-(4-benzylpiperidin-1-yl)propyl)-1-(3-(4-methoxyphenyl)-1,2,4-oxadiazol-5-yl)piperidine-4-carboxamide], the “Myc Efficacy (−LogEC50)” value is “+++ (+++ ≥6)”.

`COc1ccc(-c2noc(C3CN(C(=O)N4CCC(C)CC4)C3)n2)cc1` [Compound 153, (3-(3-(4-methoxyphenyl)-1,2,4-oxadiazol-5-yl)azetidin-1-yl)(4-methylpiperidin-1-yl)methanone]: the “Myc Efficacy (−LogEC50)” value is “+ (+ >3 and <5)”.

As to `Cc1ccc(CN2CCC(CNC(=O)C3CCN(c4nc(-c5ccc(Cl)cc5)no4)CC3)C2)cc1` (stereo not drawn) [Compound 154, 1-(3-(4-chlorophenyl)-1,2,4-oxadiazol-5-yl)-N-((1-(4-methylbenzyl)pyrrolidin-3-yl)methyl)piperidine-4-carboxamide], the “Myc Efficacy (−LogEC50)” value is “++ (++ ≥5 and <6)”.

For the molecule `Cc1ccc(CN2CCC(CNC(=O)C3CCN(c4nc(-c5cccc(Cl)c5)no4)CC3)C2)cc1` (stereo not drawn) [Compound 155, 1-(3-(3-chlorophenyl)-1,2,4-oxadiazol-5-yl)-N-((1-(4-methylbenzyl)pyrrolidin-3-yl)methyl)piperidine-4-carboxamide], the “Myc Efficacy (−LogEC50)” value was “++ (++ ≥5 and <6)”.

For the molecule `Cc1ccc(CN2CCC(CNC(=O)C3CCN(c4nc(-c5ccccc5Cl)no4)CC3)C2)cc1` (stereo not drawn) [Compound 156, 1-(3-(2-chlorophenyl)-1,2,4-oxadiazol-5-yl)-N-((1-(4-methylbenzyl)pyrrolidin-3-yl)methyl)piperidine-4-carboxamide], the “Myc Efficacy (−LogEC50)” value is “+ (+ >3 and <5)”.

On to `COc1ccc(-c2cccc(N3CCC(C(=O)NCC4CCN(Cc5ccc(C)cc5)C4)CC3)n2)cc1` (stereo not drawn) [Compound 157, 1-(6-(4-methoxyphenyl)pyridin-2-yl)-N-((1-(4-methylbenzyl)pyrrolidin-3-yl)methyl)piperidine-4-carboxamide], for which the “Myc Efficacy (−LogEC50)” value was “++ (++ ≥5 and <6)”.

As to `Cc1ccc(CN2CCC(CNC(=O)C3CCN(c4nc(-c5ccc(C#N)cc5)no4)CC3)C2)cc1` (stereo not drawn) [Compound 158, 1-(3-(4-cyanophenyl)-1,2,4-oxadiazol-5-yl)-N-((1-(4-methylbenzyl)pyrrolidin-3-yl)methyl)piperidine-4-carboxamide], the “Myc Efficacy (−LogEC50)” value is “++ (++ ≥5 and <6)”.

As to `COc1ccc(-c2noc(N3CCC(C(=O)NCC4CCN(Cc5ccc(C)cc5)C4)CC3)n2)cn1` (stereo not drawn) [Compound 159, 1-(3-(6-methoxypyridin-3-yl)-1,2,4-oxadiazol-5-yl)-N-((1-(4-methylbenzyl)pyrrolidin-3-yl)methyl)piperidine-4-carboxamide], the “Myc Efficacy (−LogEC50)” value is “+ (+ >3 and <5)”.

Consider `COc1ccc(-c2csc(N3CCC(C(=O)NCC4CCN(Cc5ccc(C)cc5)C4)CC3)n2)cc1` (stereo not drawn) [Compound 160, 1-(4-(4-methoxyphenyl)thiazol-2-yl)-N-((1-(4-methylbenzyl)pyrrolidin-3-yl)methyl)piperidine-4-carboxamide], for which the “Myc Efficacy (−LogEC50)” value was “++ (++ ≥5 and <6)”.

For the molecule `COc1ccc(-c2noc(N3CCC(C(=O)NCc4ccncc4)CC3)n2)cc1` [Compound 161, 1-(3-(4-methoxyphenyl)-1,2,4-oxadiazol-5-yl)-N-(pyridin-4-ylmethyl)piperidine-4-carboxamide], the “Myc Efficacy (−LogEC50)” value is “+ (+ >3 and <5)”.
